# PMC8151276, “An Integrated Approach toward NanoBRET Tracers for Analysis of GPCR Ligand Engagement” (Molecules, 2021)
# How the values were obtained:
# Type in all cases: binding
# AVPR2 = molecular target: T1, AVPR2 (Homo sapiens, UniProt P30518); assay: NanoBRET screen HiBiT-AVPR2 in HEK293
# T1 construct: purchased Promega (in-house HiBiT-GPCR construct library, NanoBRET)
# Protocol: (§1) Each tracer candidate was screened across the entire library of HiBiT-GPCR constructs using NanoBRET as the detection modality. As depicted in Figure 4A, the specificity of interactions was evaluated through decrease in BRET due to competitive displacement of a bound tracer by excess parental compound. Each tracer was analyzed for binding to each HiBiT-GPCR fusion in the absence and in the presence of competing parental compound. Briefly, HEK293 cells were transfected with HiBiT-GPCR constructs diluted into promoterless DNA to reduce expression and maximize translocation to the cell surface. Each tracer candidate was then screened at concentrations of 1 μM and 0.1 μM across cells expressing these fusions. Cells were treated for 1.5 h with tracer either alone or in the presence of 20 μM competing parental compound (i.e., control). BRET was measured upon addition of purified LgBiT and subsequent complementation with HiBiT genetically fused to a GPCR. The specificity of interactions was assessed through a decrease in BRET signal due to competitive displacement of the bound tracer. To further gauge the robustness of these interactions, the fold response over the control (i.e., BRETtracer/BRETcontrol) was calculated. We chose a 1.5-fold response, which translates to ≥7-fold signal over noise as the minimal threshold required to score an interaction as positive. […]. Below we highlight the screening results obtained for our exemplary fluorescent tracers based on Clozapine, Amitriptyline and AZD1283.
# (§2) HiBiT-GPCR DNA constructs were diluted in 10 mM Tris pH 8 to a final concentration of 0.01 μg/μL, arrayed in 96-well plates and stored at −20 °C. For transfection, HEK293 cells were suspended in Opti-MEM (without phenol red) supplemented with 2% fetal bovine serum (Seradigm) and 100 units/mL penicillin–streptomycin (Gibco) at a final concentration of 220,000 cells/mL and dispensed into white 96-well plates at 90 μL/well. Subsequent transfections and screens were carried using an Agilent Bravo Automated Liquid Handling Platform. First, the 96-well HiBiT DNA arrays were diluted 25-fold in Opti-MEM (without serum or phenol red) to a final concentration of 0.0004 μg/μL and 20 μL of the diluted DNAs were transferred into new 96-well plates. Next, promoterless carrier DNA (1 μg/μL) was diluted 25-fold (0.04 μg/μL) and then dispensed into the diluted arrays at 20 μL/well. Following brief mixing, Viafect transfection reagent (Promega) diluted 16-fold into Opti-MEM was dispensed into the plates at 40 μL/well. After mixing by pipetting, plates were incubated for 10 min on the pipetting station deck. The DNA-transfection reagent complexes were then added to plates containing cells. To facilitate the screen, 10 μL of DNA-transfection reagent complexes were added in duplicates to the top 4 and bottom 4 rows, resulting in two identical 48-well arrays per plate. Plates with transfected cells were incubated for 18–20 h at 37 °C/5% CO2. A screen of each tracer across the entire library using two different concentrations requires duplicate plates of transfected cells. Depending on the number of tracers being screened, transfections can be scaled up using the same ratios. The next day, for each tracer, four 20× screening solutions in tracer dilution buffer (Promega) were prepared: two duplicates at final concentration of 20 μM and two duplicates at a final concentration of 2 μM. A competing unmodified compound was added to one of each duplicate at a final concentration of 400 μM. The four resulting solutions were diluted 4-fold in Opti-MEM without serum or phenol red to generate 5× solutions (5 µM and 0.5 µM tracer +/− 100 μM competing compound). To screen the library, a BioTek MultiFlo FX liquid dispenser was used to dispense 22.5 µL of tracer solution to the top 4 rows and 22.5 µL tracer + competing compound solution to the 4 bottom rows. Plates were briefly mixed on an orbital shaker and incubated for 1.5 h at room temperature. […]
# FZD7 = molecular target: T2, FZD7 (Homo sapiens, UniProt O75084); assay: NanoBRET screen HiBiT-FZD7 in HEK293
# T2 construct: purchased Promega (in-house HiBiT-GPCR construct library, NanoBRET)
# Protocol: as §1, §2
# GHSR = molecular target: T3, GHSR (Homo sapiens, UniProt Q92847); assay: NanoBRET screen HiBiT-GHSR in HEK293
# T3 construct: purchased Promega (in-house HiBiT-GPCR construct library, NanoBRET)
# Protocol: as §1, §2
# T1 sequence (P30518 whole entry): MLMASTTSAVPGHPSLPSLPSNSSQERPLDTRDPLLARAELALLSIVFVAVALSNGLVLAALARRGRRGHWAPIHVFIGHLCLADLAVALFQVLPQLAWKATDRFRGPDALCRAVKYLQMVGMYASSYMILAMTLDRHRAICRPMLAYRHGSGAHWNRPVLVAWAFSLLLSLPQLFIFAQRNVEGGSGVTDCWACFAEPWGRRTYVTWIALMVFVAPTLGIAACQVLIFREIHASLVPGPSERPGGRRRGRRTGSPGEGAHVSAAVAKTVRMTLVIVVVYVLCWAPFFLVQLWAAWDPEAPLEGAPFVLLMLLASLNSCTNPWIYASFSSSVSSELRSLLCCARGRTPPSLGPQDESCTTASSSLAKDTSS
# T3 sequence (Q92847 whole entry): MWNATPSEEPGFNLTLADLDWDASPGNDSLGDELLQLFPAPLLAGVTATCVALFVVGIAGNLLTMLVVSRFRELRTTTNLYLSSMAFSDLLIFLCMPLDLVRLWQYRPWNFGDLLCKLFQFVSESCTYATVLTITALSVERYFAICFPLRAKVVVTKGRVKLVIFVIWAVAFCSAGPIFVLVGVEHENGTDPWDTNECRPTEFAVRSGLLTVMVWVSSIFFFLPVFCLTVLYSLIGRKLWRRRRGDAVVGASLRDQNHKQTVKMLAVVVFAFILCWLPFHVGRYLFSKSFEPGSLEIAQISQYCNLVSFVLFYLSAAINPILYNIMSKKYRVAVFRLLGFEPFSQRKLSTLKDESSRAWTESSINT
smiles,measurement,setting,value
O=C(CCc1ccc2n1[B-](F)(F)[N+]1=C(c3ccc[nH]3)C=CC1=C2)NCc1ccc(C(=O)NCCOCCC(=O)N[C@@H]2CC[C@@]3(O)[C@H]4Cc5ccc(O)c6c5[C@@]3(CCN4CC3CC3)[C@H]2O6)cc1 [Naltrexone-3-NB590],NanoBRET Fold Response,"AVPR2; AVPR2, tracer 0.1μM",1.30
same,NanoBRET Fold Response,"AVPR2; AVPR2, tracer 1μM",0.97
same,NanoBRET Fold Response,"FZD7; FZD7, tracer 0.1μM",1.32
same,NanoBRET Fold Response,"FZD7; FZD7, tracer 1μM",1.27
same,NanoBRET Fold Response,"GHSR; GHSR, tracer 0.1μM",1.01
same,NanoBRET Fold Response,"GHSR; GHSR, tracer 1μM",0.90
CN1CCN(C2=Nc3cc(Cl)ccc3N(CC(=O)NCCOCCOCCOCCOCCNC(=O)CCc3ccc4n3[B-](F)(F)[N+]3=C(c5ccc[nH]5)C=CC3=C4)c3ccccc32)CC1 [Clozapine-c-2-NB590],NanoBRET Fold Response,"AVPR2; AVPR2, 0.1μM tracer",0.99
same,NanoBRET Fold Response,"AVPR2; AVPR2, 1μM tracer",1.00
same,NanoBRET Fold Response,"FZD7; FZD7, 0.1μM tracer",0.98
same,NanoBRET Fold Response,"FZD7; FZD7, 1μM tracer",1.00
same,NanoBRET Fold Response,"GHSR; GHSR, 0.1μM tracer",1.00
same,NanoBRET Fold Response,"GHSR; GHSR, 1μM tracer",1.04
O=C(CCOCCOCCOCCOCCNC(=O)CCc1ccc2n1[B-](F)(F)[N+]1=C(c3ccc[nH]3)C=CC1=C2)NCCCN1CCN(C2=Nc3cc(Cl)ccc3Nc3ccccc32)CC1 [Clozapine-a-2-NB590],NanoBRET Fold Response,"AVPR2; AVPR2, 0.1μM tracer",1.03
same,NanoBRET Fold Response,"AVPR2; AVPR2, 1μM tracer",0.95
same,NanoBRET Fold Response,"FZD7; FZD7, 0.1μM tracer",1.00
same,NanoBRET Fold Response,"FZD7; FZD7, 1μM tracer",0.98
same,NanoBRET Fold Response,"GHSR; GHSR, 0.1μM tracer",0.95
same,NanoBRET Fold Response,"GHSR; GHSR, 1μM tracer",1.06
CCOC(=O)c1cc(C#N)c(N2CCC(C(=O)NS(=O)(=O)Cc3ccccc3/C=C/C(=O)NCCNC(=O)CCc3ccc4n3[B-](F)(F)[N+]3=C(c5ccc[nH]5)C=CC3=C4)CC2)nc1C [AZD1283-1-NB590],NanoBRET Fold Response,"AVPR2; AVPR2, 0.1μM",1.03
same,NanoBRET Fold Response,"AVPR2; AVPR2, 1μM",1.05
same,NanoBRET Fold Response,"FZD7; FZD7, 0.1μM",1.03
same,NanoBRET Fold Response,"FZD7; FZD7, 1μM",1.04
same,NanoBRET Fold Response,"GHSR; GHSR, 0.1μM",1.01
same,NanoBRET Fold Response,"GHSR; GHSR, 1μM",1.04
COc1ccc2[nH]c(-c3ccc(CNC(=O)CCOCCOCCOCCOCCNC(=O)CCc4ccc5n4[B-](F)(F)[N+]4=C(c6ccc[nH]6)C=CC4=C5)cc3)c(CCNC(C)=O)c2n1 [AzomelatoninICO9-2-NB590],NanoBRET Fold Response,AVPR2; 0.1μM tracer,0.84
same,NanoBRET Fold Response,AVPR2; 1μM tracer,0.87
same,NanoBRET Fold Response,FZD7; 0.1μM tracer,1.29
same,NanoBRET Fold Response,FZD7; 1μM tracer,0.84
same,NanoBRET Fold Response,GHSR; 0.1μM tracer,0.89
same,NanoBRET Fold Response,GHSR; 1μM tracer,0.90
CCCn1c(=O)c2[nH]c(-c3ccc(OCC(=O)NCCNC(=O)CCOCCNC(=O)c4ccc(CNC(=O)CCc5ccc6n5[B-](F)(F)[N+]5=C(c7ccc[nH]7)C=CC5=C6)cc4)cc3)nc2n(CCC)c1=O [XAC-3-NB590],NanoBRET Fold Response,"AVPR2; AVPR2, tracer 0.1μM",0.73
same,NanoBRET Fold Response,"AVPR2; AVPR2, tracer 1μM",0.91
same,NanoBRET Fold Response,"FZD7; FZD7, tracer 0.1μM",1.09
same,NanoBRET Fold Response,"FZD7; FZD7, tracer 1μM",1.01
same,NanoBRET Fold Response,"GHSR; GHSR, tracer 0.1μM",1.07
same,NanoBRET Fold Response,"GHSR; GHSR, tracer 1μM",1.02
COc1ccccc1N1CCN(CCCCN2C(=O)c3ccc(CNC(=O)CCOCCNC(=O)c4ccc(CNC(=O)CCc5ccc6n5[B-](F)(F)[N+]5=C(c7ccc[nH]7)C=CC5=C6)cc4)cc3C2=O)CC1 [NAN-190-3-NB590],NanoBRET Fold Response,"AVPR2; AVPR2, tracer 0.1μM",1.08
same,NanoBRET Fold Response,"AVPR2; AVPR2, tracer 1μM",1.11
same,NanoBRET Fold Response,"FZD7; FZD7, tracer 0.1μM",0.94
same,NanoBRET Fold Response,"FZD7; FZD7, tracer 1μM",1.27
same,NanoBRET Fold Response,"GHSR; GHSR, tracer 0.1μM",0.86
same,NanoBRET Fold Response,"GHSR; GHSR, tracer 1μM",1.06
CN(CCC=C1c2ccccc2CCc2ccccc21)C(=O)CCOCCOCCOCCOCCNC(=O)CCc1ccc2n1[B-](F)(F)[N+]1=C(c3ccc[nH]3)C=CC1=C2 [Amitriptyline-e-2-NB590],NanoBRET Fold Response,AVPR2; tracer at 1μM,0.99
same,NanoBRET Fold Response,FZD7; tracer at 1μM,1.02
O=C(CCc1ccc2n1[B-](F)(F)[N+]1=C(c3ccc[nH]3)C=CC1=C2)NCc1ccc(C(=O)NCCOCCOCCNCC(O)COc2cccc3ccccc23)cc1 (centres unmarked) [Propranolol-3-NB590],NanoBRET Fold Response,"AVPR2; AVPR2, 0.1μM",1.00
same,NanoBRET Fold Response,"AVPR2; AVPR2, 1μM",1.00
same,NanoBRET Fold Response,"FZD7; FZD7, 0.1μM",1.01
same,NanoBRET Fold Response,"FZD7; FZD7, 1μM",1.04
same,NanoBRET Fold Response,"GHSR; GHSR, 0.1μM",0.98
same,NanoBRET Fold Response,"GHSR; GHSR, 1μM",0.97
COc1ccc2c(n1)c(CCNC(C)=O)cn2CCNC(=O)CCc1ccc2n1[B-](F)(F)[N+]1=C(c3ccc[nH]3)C=CC1=C2 [Azamelatonin-1-NB590],NanoBRET Fold Response,AVPR2; 0.1μM tracer,0.91
same,NanoBRET Fold Response,AVPR2; 1μM tracer,1.01
same,NanoBRET Fold Response,FZD7; 0.1μM tracer,1.11
same,NanoBRET Fold Response,FZD7; 1μM tracer,1.11
same,NanoBRET Fold Response,GHSR; 0.1μM tracer,0.93
same,NanoBRET Fold Response,GHSR; 1μM tracer,1.03
O=C(CCOCCOCCOCCOCCNC(=O)CCc1ccc2n1[B-](F)(F)[N+]1=C(c3ccc[nH]3)C=CC1=C2)NCCCN1CCN(C2=Nc3ccccc3Oc3ccc(Cl)cc32)CC1 [Loxapine-a-2-NB590],NanoBRET Fold Response,"AVPR2; AVPR2, tracer 0.1μM",1.04
same,NanoBRET Fold Response,"AVPR2; AVPR2, tracer 1μM",1.05
same,NanoBRET Fold Response,"FZD7; FZD7, tracer 0.1μM",1.03
same,NanoBRET Fold Response,"FZD7; FZD7, tracer 1μM",1.05
same,NanoBRET Fold Response,"GHSR; GHSR, tracer 0.1μM",0.97
same,NanoBRET Fold Response,"GHSR; GHSR, tracer 1μM",1.09
COc1ccccc1N1CCN(CCCCN2C(=O)c3ccc(CNC(=O)CCOCCOCCOCCOCCNC(=O)CCc4ccc5n4[B-](F)(F)[N+]4=C(c6ccc[nH]6)C=CC4=C5)cc3C2=O)CC1 [NAN-190-2-NB590],NanoBRET Fold Response,"AVPR2; AVPR2, tracer 0.1μM",1.00
same,NanoBRET Fold Response,"AVPR2; AVPR2, tracer 1μM",0.98
same,NanoBRET Fold Response,"FZD7; FZD7, tracer 0.1μM",1.00
same,NanoBRET Fold Response,"FZD7; FZD7, tracer 1μM",1.03
same,NanoBRET Fold Response,"GHSR; GHSR, tracer 0.1μM",1.01
same,NanoBRET Fold Response,"GHSR; GHSR, tracer 1μM",1.02
CC(C)N(CC[C@H](c1ccccc1)c1cc(CCNC(=O)c2ccc(CNC(=O)CCc3ccc4n3[B-](F)(F)[N+]3=C(c5ccc[nH]5)C=CC3=C4)cc2)ccc1O)C(C)C [Tolterodine-BZ-NB590],NanoBRET Fold Response,"AVPR2; AVPR2, tracer 0.1μM",0.97
same,NanoBRET Fold Response,"AVPR2; AVPR2, tracer 1μM",1.05
same,NanoBRET Fold Response,"FZD7; FZD7, tracer 0.1μM",1.04
same,NanoBRET Fold Response,"FZD7; FZD7, tracer 1μM",1.06
same,NanoBRET Fold Response,"GHSR; GHSR, tracer 0.1μM",1.00
same,NanoBRET Fold Response,"GHSR; GHSR, tracer 1μM",1.06
O=C(CCc1ccc2n1[B-](F)(F)[N+]1=C(c3ccc[nH]3)C=CC1=C2)NCCOCCOCCNC(=O)OCCOCCN1CCN(C2=Nc3ccccc3Sc3ccccc32)CC1 [Quetiapine-a-2-NB590],NanoBRET Fold Response,"AVPR2; AVPR2, tracer 0.1μM",1.03
same,NanoBRET Fold Response,"AVPR2; AVPR2, tracer 1μM",0.93
same,NanoBRET Fold Response,"FZD7; FZD7, tracer 0.1μM",1.04
same,NanoBRET Fold Response,"FZD7; FZD7, tracer 1μM",0.91
same,NanoBRET Fold Response,"GHSR; GHSR, tracer 0.1μM",0.97
same,NanoBRET Fold Response,"GHSR; GHSR, tracer 1μM",0.77
CN1CCN(C2=Nc3cc(Cl)ccc3Nc3ccc(CNC(=O)CCOCCOCCOCCOCCNC(=O)CCc4ccc5n4[B-](F)(F)[N+]4=C(c6ccc[nH]6)C=CC4=C5)cc32)CC1 [Clozapine-b-2-NB590],NanoBRET Fold Response,"AVPR2; AVPR2, 0.1μM tracer",1.05
same,NanoBRET Fold Response,"AVPR2; AVPR2, 1μM tracer",0.95
same,NanoBRET Fold Response,"FZD7; FZD7, 0.1μM tracer",1.01
same,NanoBRET Fold Response,"FZD7; FZD7, 1μM tracer",0.98
same,NanoBRET Fold Response,"GHSR; GHSR, 0.1μM tracer",1.01
same,NanoBRET Fold Response,"GHSR; GHSR, 1μM tracer",1.03
